In the NIST ThermoML archive (doi:10.1016/j.tca.2012.10.004):

Experiments:
[1] = refractive index (Na D-line) (dimensionless); conditions: 101.33 kPa, Liquid, Standard Abbe refractometry
[2] = relative permittivity at zero frequency (dimensionless); conditions: 101 kPa, Liquid, Coaxial cylinder capacitor
[3] = 101 kPa, Liquid, Pycnometric method
[4] = relative permittivity at zero frequency (dimensionless); xn = mol fraction of the nth substance listed; conditions: 101 kPa, Liquid, Coaxial cylinder capacitor, x2 = 0
[5] = refractive index (Na D-line) (dimensionless); xn = mol fraction of the nth substance listed; conditions: 101 kPa, Liquid, Standard Abbe refractometry, x2 = 0
[6] = xn = mol fraction of the nth substance listed; conditions: 101 kPa, Liquid, Pycnometric method, x2 = 0

CN(CCO)CCO [N-methyldiethanolamine]
Conditions | mass density, [3] [kg/m3] | refractive index, [1] | relative permittivity at zero frequency, [2]
293.15 K | 1041.6 | 1.46935 | 22.9
298.15 K | 1037.9 | 1.46724 | 22.4
303.15 K | 1034.1 | 1.46532 | 21.8
308.15 K | 1030.3 | 1.4631 | 21.3
313.15 K | 1026.5 | 1.46074 | 20.8
318.15 K | 1022.7 | 1.45892 | 20.3
323.15 K | 1018.9 | 1.45708 | 19.8
328.15 K | 1015 | 1.45513 | 19.3

O=S1(=O)CCCC1 [sulfolane]
Conditions | mass density, [3] [kg/m3] | refractive index, [1] | relative permittivity at zero frequency, [2]
293.15 K | 1270.8 | 1.4854 | 44.5
298.15 K | 1266.5 | 1.4836 | 44
303.15 K | 1262 | 1.4814 | 43.4
308.15 K | 1257.6 | 1.4796 | 42.8
313.15 K | 1253.2 | 1.478 | 42.2
318.15 K | 1248.7 | 1.4762 | 41.6
323.15 K | 1244.2 | 1.4744 | 41.1
328.15 K | 1240.3 | 1.4726 | 40.4

O=S1(=O)CCCC1 [sulfolane] + CN(CCO)CCO
Conditions | mass density, [6] [kg/m3] | refractive index, [5] | relative permittivity at zero frequency, [4]
293.15 K | 1270.8 | 1.4854 | 44.5
298.15 K | 1266.5 | 1.4836 | 44
303.15 K | 1262 | 1.4814 | 43.4
308.15 K | 1257.6 | 1.4796 | 42.8
313.15 K | 1253.2 | 1.478 | 42.2
318.15 K | 1248.7 | 1.4762 | 41.6
323.15 K | 1244.2 | 1.4744 | 41.1
328.15 K | 1240.3 | 1.4726 | 40.4
